How the values were obtained:
CYP3A4 = assay: Western blot protein level after 7 days gavage: CYP3A4; assay type: in vivo; conditions: mice, p.o. 7 days; liver and kidney (either tissue)
Description: Mice were randomly divided into four groups, with eight animals in each group. The mice received oral pretreatment with N-hydap for 7 days at doses of 2, 5, and 10 mg/kg/day, which were considered as the low dose, medium dose, and high dose, respectively. Correspondingly, the control group received PBS. On the 8th day, the liver and kidneys were removed, and organs from eight mice per group were combined to prepare MLMs and MKMs using the detailed procedures above. Subsequently, we determined the activity of CYP and UGT enzymes by specific substrate metabolized with MLMs (0.5 mg/mL) and MKMs (0.2 mg/mL) in vitro. […] In the ex vivo experiments, the activity of enzymes was measured by quantifying the production of various metabolites (nM/mg protein/min). […] The measurements were performed using multiple reaction monitoring (MRM) transitions, which are specific mass spectrometry transitions used for quantification. […]
After 7 days of N-hydap gavage, the liver and kidney tissues were lysed using RIPA buffer supplemented with a 1% protease inhibitor cocktail. […] Western blot signals were detected using an ECL chemiluminescence detection agent. The relative intensity of each protein band was scanned and quantified using Image J software.

MKMs = assay: Kinetics of N-hydap glucuronidation in MKMs; assay type: in vitro ADME, mouse; conditions: MKM
Description: In this study, the rats were executed by drawing blood from the abdominal aorta and mice were sacrificed with cervical dislocation before the liver and kidneys were excised. The liver and kidneys were removed, and washed with chilled cleansing solution (contains 8 mM KH2PO4, 5.6 mM EDTA·K2·2H2O, 1 mM DTT and 229.6 μM PMSF), homogenized in a tissue homogenate buffer with a pH of 7.4, (consisting of […], 8 mM K2HPO4, 250 mM sucrose, 1 mM EDTA·K2·2H2O and 229.6 μM PMSF). Subsequently, the homogenate was centrifuged at 10,400 rpm at 4 °C for 15 min, and the supernatant was then centrifuged at 35,000 rpm at 4 °C for 60 min. A 250 mM sucrose buffer was added to the pellet to reconstitute and the resuspension was stored at − 80 °C until use. Microsome protein concentrations were measured by Omni-Easy™ Instant BCA Protein Assay Kit.
Various microsomes including HLMs, HKMs, HIMs, RLMs, RKMs, MLMs and MKMs were involved in CYP and UGT reactions of N-hydap. […]
The substrate concentrations used for HLMs were 0.05, 0.5, 2, 2.5, 5, 10, 25, 50, and 100 μM. […] The rates of N-hydap-G by enzymes were expressed as nmol/mg/min, representing the amount of metabolites formed per minute per milligram of protein. Kinetic parameters were determined by analyzing the Eadie–Hofstee plots. […]

SMILES: CC1CCC2C(C=CC(C)C2C(=O)c2c(O)c(C3(O)CCC(O)C4OC43)cn(O)c2=O)C1 (centres unmarked) [N-hydap, N-Hydroxyapiosporamide]
- protein levels of CYP3A4 (CYP3A4): no significant changes
- Km (MKMs): 405 µM

— PMC11109052, “Metabolism characterization and toxicity of N-hydap, a marine candidate drug for lung cancer therapy by LC–MS method” (Natural Products and Bioprospecting, 2024)
